Assay results reported in patent US20210361701A1, “PENTAAZA MACROCYCLIC RING COMPLEXES FOR LOCAL DELIVERY” (Galera Labs, LLC, priority 2017, published 2021).
Several values for one entry are separate records, joined by “and”; a condition that tells them apart may be missing. Identical values can stand only once. Like-named read-outs stand apart in the source and are kept apart here.

What was measured:
[1] = Minipig intraduodenal (id) bioavailability of oil formulations versus iv parent complex; type: in vivo, Gottingen minipig; settings: id 10 mg/kg, 10% by weight formulation, vs 1 mg/kg iv parent, AUC0->24 h
Protocol: Compounds were screened for oral bioavailability by injecting the formulated prodrugs directly into the duodenum (intraduodenal or id administration) of the minipig test subjects, thus bypassing the acidic environment of the stomach and thereby eliminating potentially misleading oral bioavailability results that could arise from alteration of the test article drug in the acid environment of the stomach.
The studies were conducted at Xenometrics LLC (Stillwell, Kans.) and the id bioavailability was determined using various axial ligand derivative complexes of GC4419, GC4444, GC4403 and GC4401. […] The following formula is then used to calculate the % oral bioavailability via intestinal absorption of the test article drug complex:
% Oral Bioavailability=AUC0->24 h(id)×(1/dose (mg/kg))÷AUC0->24 hr (iv)*
*Where the iv dose is 1 mg of test article drug per kilogram body weight of the mini-pig, and the dose administered id is 10 mg of test article drug per kg body weight of the mini-pig.
Male Gottingen minipigs (4-5 mo old, 9-12 kg weight) were purchased from Marshall BioResources and housed at Xenometrics. […] The distal end was exteriorized with a reusable accessible hub (see surgical details below). During a recovery period of at least 2 weeks the minipigs were handled daily to acclimate them to the test procedures, i.e., id dosing and blood collections. For each experiment, each minipig received a test article drug dissolved or suspended in an excipient vehicle. […] All dosing experiments were conducted in fasted animals. Food was withdrawn from the minipigs 16 hours before dosing. The minipigs had ad libitum access to water. Dosed minipigs were allowed access to food 6 hour after dosing. The test article was administered at a dose of 10 mg/kg parent drug in 0.1 mL/kg vehicle (e.g., 1.5 mL in 15 kg minipig) as a bolus injection (˜1 minute) via the id cannula. The actual amount of total test article drug administered varied with the formula weight of the prodrug. An equal volume of excipient vehicle was used to flush the cannula after the test article was administered. Approximately 6 hours later, corn oil was used to flush the cannula. After approximately 24 hours post-dose, the catheter was flushed with sterile saline solution and capped. At the following time-points 0.25, 0.5, 1, 2, 4, 8, 24 and 48 hour post-injection, 2 mL blood samples were collected by cranial vena cava puncture (4 mL Sodium heparin Vacutainer, 20 g 1.5″ needle) after the skin surface was wiped with ethanol. The minipig was placed in a sling in a recumbent position without anesthesia for the collection of blood samples. The minipigs were never used more than once per 7 days for experimentation. The blood samples were kept on ice until processed for plasma. Blood samples were centrifuged at 1200×g for ten minutes at 4° C. and plasma samples were transferred to 96 well plate tubes, capped and stored at −20° C. until shipment on dry ice to the analytical laboratory used for measuring the concentration of drug in the plasma. The concentration of the parent manganese pentaaza macrocylic ring complex (independent of the composition of the axial ligands) was measured in plasma using a validated HPLC/MS/MS method that is linear between 50 ng/mL and 20,000 ng/mL.
The oils used for preparing the dosing solutions were used as supplied from commercial sources. The Capmul MCM (NF) is a mixture of mono/diglycerides of caprylic/capric acids and was supplied by ABITEC Corporation, Janesville, Wis. The Miglyol 812 N is a mixture of caprylic/capric acid triglycerides and was supplied by Cremer Oleo Division, Eatontown, N.J. Labrafil M 2125 CS (NF) is chemically defined to be linoleoyl polyoxyl-6 glycerides NF and was supplied by Gattefosse, SAINT-PRIEST Cedex, France. Peceol is chemically defined to be the monoglyceride, glyceryl monooleate NF, and was supplied by Gattefosse, SAINT-PRIEST Cedex, France. […]

[2] = Rat indomethacin model of intestinal inflammation (Crohn's Disease); type: in vivo, Female Lewis rats
Protocol: A study was conducted to determine the potential efficacy of GC4403 delivered locally to the intestine in a model of intestinal inflammation (Crohn's Disease) induced by the administration of indomethacin. Female Lewis rats received cannulae surgically implanted in the duodenum with the opposite end exteriorized, and were allowed to recover. The cannulae enabled the direct injection of GC4403 or vehicle into the duodenum (intraduodenal or ID dosing) in these animals; however, uncannulated female Lewis rats were used for dosing groups not receiving ID dosing. Rats were administered indomethacin on experimental days 0 and 1 (9 mg/kg/d; subcutaneously) to induce lesions similar to those occurring in Crohn's disease in the small intestine (SI). The therapeutic interventions outlined in Table II were administered in 9 dosing groups of 10 (IV) or 12 (ID) animals each on days 0 through 3:
The rats were sacrificed and necropsied on day 4, and 10 cm sections from the middle portion of the SI (jejunum) were weighed and examined by histopathology for inflammation. The weight of a 10 cm section serves as a surrogate marker for comparing inflammation and edema across the dosing groups.

[3] = Plasma pharmacokinetics after intraduodenal or intravenous dosing in female rats; type: in vivo; settings: for plasma concentrations and Cmax: rat, in vivo
Protocol: Therefore, following equivalent doses of GC4403, the systemic exposure to an ID dose in this Example was at least 30-100 times lower than it would be from an IV dose. […] This is important since the No Observable Adverse Effect Level (NOAEL) for chronic repeated IV dosing of GC4403 in the rat was previously shown to be only 3 mg/kg/day, and at this time, GC4403 has only be administered successfully to humans by the IV route. Thus, GC4403 or another related dismutase mimetic, such as GC4419, administered as an appropriate oral dosage form delivering drug directly into the small intestine may be an effective treatment for Crohn's Disease, ulcerative colitis and related diseases in humans.

[4] = chronic repeated IV dosing, rat; cited from earlier work
[5] = 30-minute iv infusion in humans; cited from earlier work
[6] = Maximum tolerated dose by 30-minute iv infusion in humans; settings: in a 70-kg subject
[7] = Phase 1b trial of intravenous GC4419: toxicity and plasma pharmacokinetics; type: in vivo, human
Protocol: (§1) The toxicity of GC4419 administered intravenously was evaluated as a part of a phase 1b trial of the use of GC4419 in the treatment of oral mucositis (OM) in patients having oral cavity or oropharyngeal carcinoma. The bioavailability by intravenous administration is presumed to represent 100% systemic bioavailability. In particular, the patients tested included serial 3-6 patient cohorts, with locally-advanced, non-metastatic oral cavity or oropharyngeal carcinoma. The study called for intensity-modulated (IM)RT to approx. 70 Gy total (>50 Gy to >2 oral sites), 2.0-2.2 Gy/fx M-F plus CDDP; plus escalating doses of GC4419, via 60-minute IV infusion, M-F for 3-7 weeks, ending <60 minutes before IMRT. WHO grade of oral mucositis was assessed twice weekly, and levels of GC4419 were measured in plasma by LC/MS. Circulating cytokines (Cy) mechanistically related to oral mucositis were also assayed.
Furthermore, or Phase 1 trials for chemoradiotherapy-induced mucositis (OM) in patients with mouth or oropharyngeal carcinoma, treatment was provided but certain adverse effects (e.g., due to systemic toxicity) occurred. The dosing regimen included dosing with GC4419 intravenously over a period of 60 minutes, ending 60 minutes before an IMRT fraction, according to the protocol as described above. The most common adverse effects were nausea, fatigue, leukopenia, dry mount, dysgeusia and vomiting, and most were attributable to chemo or radiation therapy. A true “maximum dose” was not reached in this study. […] 16% of patients receiving 90 mg/day had grade 3 nausea, and 25% of those receiving 112 mg/day had grade 3 nausea, with those receiving 112 mg/day also experiencing some grade 3 vomiting (i.e., 25%).

[8] = Phase 1b trial of intravenous GC4419: oral mucositis outcome; type: in vivo, human; settings: IV GC4419 with IMRT plus CDDP; compared with historical controls
Protocol: as §1

[9] = 10 mg/kg IP injection on days 0-3
[10] = 30 mg/kg ID, direct topical delivery into the intestine

Manganese(II)bis-D-phenylglycinato [(4aS,13aS,17aS,21aS)-1,2,3,4,4a,5,6,12,13,13a, 14,15,16,17,17a,18,19,20,21,21a-Eicosahydro-11,7-nitrilo-7H-dibenzo[b,h][1,4,7,10] tetraazacyclo-heptadecine-κN5, κN13, κN18, κN21, κN22]- [GC4721]
Mini-Pig BioA ([1]; Base oil Miglyol 812 N): 11.5%^

O=C([O-])c1ccccc1.O=C([O-])c1ccccc1.[Mn+2].c1cc2nc(c1)CNC1CCCCC1NCCNC1CCCCC1NC2 [GC4712, Manganese(II)bis-Benzoato[(4aS,13aS,17aS,21aS)-1,2,3,4,4a,5,6,12,13,13a,14,15,16,17,17a,18,19,20,21,21a-Eicosahydro-11,7-nitrilo-7H-dibenzo[b,h][1,4,7,10]tetraazacycloheptadecine-κN5, κN13, κN18, κN21, κN22]-]
Mini-Pig BioA ([1]; Base oil Capmul MCM): 24% | Mini-Pig BioA ([1]; Base oil Maisine 35-1): 18% | Mini-Pig BioA ([1]; Base oil Peceol): 29%

CCCC(=O)[O-].CCCC(=O)[O-].[Mn+2].c1cc2nc(c1)CNC1CCCCC1NCCNC1CCCCC1NC2 [GC4713, Manganese(II)bis-n-Butyrato[(4aS,13aS,17aS,21aS)-1,2,3,4,4a,5,6,12,13,13a,14,15,16,17,17a,18,19,20,21,21a-Eicosahydro-11,7-nitrilo-7H-dibenzo[b,h][1,4,7,10]tetraazacycloheptadecine-κN5, κN13, κN18, κN21, κN22]-]
Mini-Pig BioA ([1]; Base oil Labrafil M2125 CS): 21% | Mini-Pig BioA ([1]; Base oil Peceol): 18%

[Cl-].[Cl-].[Mn+2].c1cc2nc(c1)CN[C@@H]1CCCC[C@H]1NCCN[C@@H]1CCCC[C@H]1NC2 [GC4403]
jejunal score [2, 9]: reduced | jejunal weight [2, 9]: reduced | reduction in jejunal score [2, 10]: 21% | reduction in jejunal weight [2, 10]: 32% | mean plasma maximum ([3]; 3 mg/kg IV dose, separate study, measured 10 min after injection): at least 3,280 ng/mL | mean plasma maximum (Cmax) ([3]; 30 mg/kg ID dose): 303 ng/mL | calculated bioavailability ([3]; 30 mg/kg ID dose, AUC of ID vs estimated AUC with IV): 3.1% | expected Cmax extrapolated ([3]; 30 mg/kg IV dose): approximately 32,800 ng/mL | Cmax of ID dose relative to expected Cmax of same dose IV ([3]; 30 mpk ID vs 30 mg/kg IV (extrapolated)): less than 1% | systemic exposure to an ID dose, lower than from an IV dose ([3]; equivalent doses): 30-100 times | No Observable Adverse Effect Level (NOAEL) [4]: 3 mg/kg/day | maximum tolerated dose [5]: 25 mg | maximum tolerated dose [6]: roughly 0.35 mg/kg

[Cl][Mn][Cl].c1cc2nc(c1)CN[C@H]1CCCC[C@@H]1NCCN[C@H]1CCCC[C@@H]1NC2 [GC4419]
nausea, patients ([7]; 30 mg/day for 14 or 30 doses, IV): 86% | nausea, patients ([7]; 50 mg/day for 14 doses, IV): 100% | nausea, patients ([7]; 75 mg/day for 14 doses, IV): 67% | grade 3 nausea, patients ([7]; 90 mg/day, IV): 20% and 16% | Dose-limiting toxicities that occurred, grade 3 ([7]; 112 mg daily, 60-minute IV infusion, with IMRT/CDDP): gastroenteritis (3 wks); and vomiting with hyponatremia (5+ wks) | nausea, patients ([7]; 112 mg/day for 14, 20, 25 or 30 doses, IV): 89% and 85% | Cmax and AUC ([7]; 60-minute IV infusion, 15-112 mg): dose-proportional | plasma t1/2 ([7]; 60-minute IV infusion, patients): ~2 h | dose limiting toxicity observed at ([7]; 60-minute IV infusion, grade 3 gastroenteritis at 3 weeks, grade 3 vomiting and hyponatremia at 5+ weeks): 112 mg/day | GC4419-related toxicity ([7]; IV, 15-112 mg daily for 3-7 weeks): acceptable | maximum dose ([7]; IV, up to 112 mg/day): not reached | facial tingling ([7]; during infusion): Mild, transient facial tingling was observed | paresthesia ([7]; patients receiving more than 30 mg/day, IV): Some grade 1-2 paresthesia was also observed | Severe OM [8]: briefer, delayed, less severe, and less frequent than expected | plasma concentrations and Cmax [3]: similarly low plasma concentrations and Cmax as GC4403 | plasma concentrations and Cmax ([3]; iv): similarly high plasma concentrations and Cmax

CC1NC2CCCCC2NCCNC2CCCCC2NCc2cccc1n2.CCC(=O)[O-].CCC(=O)[O-].[Mn+2] [GC4747, Manganese(II)bis-propionato[6R-Methyl(4aR,13aR,17aR,21aR)-1,2,3,4,4a,5,6,12,13,13a,14,15,16,17,17a,18,19,20,21,21a-Eicosahydro-11,7-nitrilo-7H-dibenzo[b,h][1,4,7,10]tetraazacycloheptadecine-κN5, κN13, κN18, κN21, κN22]-]
Mini-Pig BioA ([1]; Base oil Labrafil M2125 CS): 20%
